Data as given in US11708562B2, “Differentiation of human embryonic stem cells” (Janssen Biotech, Inc., priority 2006, dated 2023).

Test system: H9P33, H9P44 and H9P48 cells
Assay: Microarray analysis of definitive endoderm on MEFs vs MATRIGEL +/- Wnt-3A (Table VI)
Conditions: DE treatment in low serum
Protocol: Controls for each group included cells plated on […]-coated dishes and cultured in MEF-conditioned medium or cells plated on MEFs and cultured in ES medium. All groups contained three biological replicates and each biological replicate was repeated on two separate gene chips.
Sample preparation, hybridization, and image analysis were performed according to the Affymetrix Human Genome U133 Plus 2.0 Array. Following normalization and a log transformation, data analysis was performed using OmniViz® software (MA) and […] (VizXLabs, WA). Significant differences in gene expression between the samples were evaluated using analysis of variance and an F-test with adjusted P-value (Benjamini and Hochberg correction) of ≤0.05. Only genes with a present call in at least one group were included in the analysis.

## Activin A: a member of the TGFβ superfamily; growth factor (R&D Systems) used to differentiate human embryonic stem cells
On MATRIGEL
  mean normalized intensity (log format), Human (clone HSY3RR) neuropeptide Y receptor (NPYR) mRNA: 1.775
  mean normalized intensity (log format), Human DNA sequence from clone RP1-181C24 on chromosome 6p11.1-12.2 (3 end of the BMP5 gene): −3.723
  mean normalized intensity (log format), Human Fritz mRNA, complete cds: 0.4366
  mean normalized intensity (log format), Human dipeptidyl peptidase IV (CD26) mRNA: −3.611
  mean normalized intensity (log format), Human glycophorin HeP2 mRNA, partial cds: −0.8435
  mean normalized intensity (log format), Human link protein mRNA, complete cds: −1.94
  mean normalized intensity (log format), Human mRNA for alpha-1 type II collagen: −2.8736
  mean normalized intensity (log format), Human mRNA for apolipoprotein AI (apo AI): 0.2151
  mean normalized intensity (log format), Human prostatic secretory protein 57 mRNA: −3.013
  mean normalized intensity (log format), KIAA0878 protein: 1.1189
  mean normalized intensity (log format), KIAA1462 protein: −3.846
  mean normalized intensity (log format), MCP-1 = monocyte chemotactic protein: −2.276
  mean normalized intensity (log format), Rho GDP dissociation inhibitor (GDI) alpha: −1.544
  mean normalized intensity (log format), WAS protein family, member 2: −2.187
  mean normalized intensity (log format), collagen, type IX, alpha 2: 1.27
  mean normalized intensity (log format), collagen, type VI, alpha 1: −1.418
  mean normalized intensity (log format), glycophorin B (includes Ss blood group): −2.852
  mean normalized intensity (log format), hepatocyte nuclear factor 4, alpha: −4.266
  mean normalized intensity (log format), homeo box HB9: −1.656
  mean normalized intensity (log format), hypothetical protein FLJ21032: 0.3557
  mean normalized intensity (log format), hypothetical protein FLJ23091: 0.3234
  mean normalized intensity (log format), hypothetical protein FLJ23403: −1.456
  mean normalized intensity (log format), matrix metalloproteinase 14 (membrane-inserted): −2.057
  mean normalized intensity (log format), microfibrillar-associated protein 4: 0.06379
  mean normalized intensity (log format), myristoylated alanine-rich protein kinase C substrate (MARCKS, 80K-L): −0.7172
  mean normalized intensity (log format), neuropilin 1: −1.623
  mean normalized intensity (log format), noggin: −1.636
  mean normalized intensity (log format), phorbolin-like protein MDS019: −1.118
  mean normalized intensity (log format), solute carrier family 16 (monocarboxylic acid transporters), member 3: −0.06641
  mean normalized intensity (log format), splicing factor, arginineserine-rich 5: 0.7481
  mean normalized intensity (log format), stanniocalcin 1: 2.411
On MEFS
  mean normalized intensity (log format), 6-phosphofructo-2-kinasefructose-2,6-biphosphatase 4: 1.6
  mean normalized intensity (log format), Cluster Incl. AB028021: Homo sapiens HNF-3beta mRNA for hepatocyte nuclear factor-3 beta: 4.117
  mean normalized intensity (log format), ESTs, Highly similar to IHH_HUMAN INDIAN HEDGEHOG PROTEIN PRECURSOR (H. sapiens): 0.5905
  mean normalized intensity (log format), ESTs, Moderately similar to JE0284 Mm-1 cell derived transplantability-associated protein 1b (H. sapiens): 4.222
  mean normalized intensity (log format), ESTs, Weakly similar to FCE2 MOUSE LOW AFFINITY IMMUNOGLOBULIN EPSILON FC RECEPTOR (M. musculus): 3.48
  mean normalized intensity (log format), ESTs, Weakly similar to the 331st table hypothetical protein KIAA0555 (H. sapiens): 0.4436
  mean normalized intensity (log format), G protein-coupled receptor: 5.053
  mean normalized intensity (log format), G protein-coupled receptor 49: 2.505
  mean normalized intensity (log format), Homo sapiens HNF-3beta mRNA for hepatocyte nuclear factor-3 beta: 2.825
  mean normalized intensity (log format), Homo sapiens KIAA0878 protein (KIAA0878), mRNA: 5.654
  mean normalized intensity (log format), Homo sapiens Kell blood group (KEL), mRNA: −0.3839
  mean normalized intensity (log format), Homo sapiens MLL septin-like fusion (MSF), mRNA: −1.5
  mean normalized intensity (log format), Homo sapiens Mix-like homeobox protein 1 (MILD1) mRNA: 0.922
  mean normalized intensity (log format), Homo sapiens Rho GTPase activating protein 6 (ARHGAP6), transcript variant 2, mRNA: −1.285
  mean normalized intensity (log format), Homo sapiens TBX3-iso protein (TBX3-iso), mRNA: 1.07
  mean normalized intensity (log format), Homo sapiens angiopoietin 2 (ANGPT2), mRNA: 0.5968
  mean normalized intensity (log format), Homo sapiens ankyrin-like with transmembrane domains 1 (ANKTM1), mRNA: 2.819
  mean normalized intensity (log format), Homo sapiens apolipoprotein A-I (APOA1), mRNA: 2.469
  mean normalized intensity (log format), Homo sapiens apolipoprotein A-II (APOA2), mRNA: 4.469
  mean normalized intensity (log format), Homo sapiens arylsulfatase E (chondrodysplasia punctata 1) (ARSE), mRNA: 3.184
  mean normalized intensity (log format), Homo sapiens atrophin-1 interacting protein 1; activin receptor interacting protein 1 (KIAA0705), mRNA: −1.32
  mean normalized intensity (log format), Homo sapiens beta-site APP cleaving enzyme (BACE) mRNA: 1.754
  mean normalized intensity (log format), Homo sapiens cDNA FLJ11550 fis, clone HEMBA1002970: 4.216
  mean normalized intensity (log format), Homo sapiens cDNA FLJ12993 fis, clone NT2RP3000197: 2.069
  mean normalized intensity (log format), Homo sapiens cDNA FLJ13221 fis, clone NT2RP4002075: 1.31
  mean normalized intensity (log format), Homo sapiens cardiac ventricular troponin C mRNA: 1.4377
  mean normalized intensity (log format), Homo sapiens cartilage linking protein 1 (CRTL1), mRNA: −0.8052
  mean normalized intensity (log format), Homo sapiens cell adhesion molecule with homology to L1CAM (close homologue of L1) (CHL1), mRNA: −2.5002
  mean normalized intensity (log format), Homo sapiens chromosome 19, cosmid R31181: 0.2239
  mean normalized intensity (log format), Homo sapiens clone 23736 mRNA sequence: 4.507
  mean normalized intensity (log format), Homo sapiens cryptic mRNA, complete cds: −0.6735
  mean normalized intensity (log format), Homo sapiens cystatin SA (CST2), mRNA: 2.1671
  mean normalized intensity (log format), Homo sapiens cystatin SN (CST1), mRNA: 4.64
  mean normalized intensity (log format), Homo sapiens cytidine deaminase (CDA), mRNA: −1.67
  mean normalized intensity (log format), Homo sapiens dual specificity phosphatase 4 (DUSP4), mRNA: 4.122
  mean normalized intensity (log format), Homo sapiens fibroblast growth factor 8 (androgen-induced) (FGF8), mRNA: 0.01583
  mean normalized intensity (log format), Homo sapiens fibroblast growth factor 17 (FGF17), mRNA: 2.4872
  mean normalized intensity (log format), Homo sapiens frizzled-related protein (FRZB), mRNA: 3.676
  mean normalized intensity (log format), Homo sapiens gastrin-releasing peptide (GRP), mRNA: 0.5098
  mean normalized intensity (log format), Homo sapiens glycophorin B (includes Ss blood group) (GYPB), mRNA: 0.1803
  mean normalized intensity (log format), Homo sapiens glycophorin E (GYPE), mRNA: −1.501
